Among the test systems are U251 CNS; CCRF-CEM leukemia; SNB-19 CNS; NCI-H460 lung; SF-295 CNS; UACC-62 melanoma; UACC-257 melanoma; UO-31 renal; OVCAR-3 ovarian; HOP-62 NSCLC.
What all share (assay): growth of human tumour cells (NCI), 48 h

The structures appear in SMILES notation.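 Cultured in 96-well plates, cells were exposed to test compound for 48 hours across five concentrations. Abbreviation: GI50, concentration required for 50% inhibition of growth. The concentration for full growth arrest is given as TGI.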

For the molecule `O=C(O)c1ccc(C2C(=O)N[C@@H]3CCC[C@H]23)cc1` (stereo not given in full), the TGI with U251 CNS, with CCRF-CEM leukemia, in the assay on SNB-19 CNS, in the assay with NCI-H460 lung, with SF-295 CNS and in the assay with UACC-62 melanoma was more than 100 µM in each case. Moreover, the TGI in the assay with UACC-257 melanoma, in the assay on UO-31 renal, with OVCAR-3 ovarian and with HOP-62 NSCLC was more than 100 µM throughout.
As to `c1c[nH]c(CN2CCOCC2)n1`, the TGI in the assay on U251 CNS, in the assay on CCRF-CEM leukemia, in the assay with SNB-19 CNS, in the assay with NCI-H460 lung, in the assay on SF-295 CNS and with UACC-62 melanoma was more than 100 µM each time. Besides, the TGI in the assay with UACC-257 melanoma, in the assay with UO-31 renal, in the assay with OVCAR-3 ovarian and with HOP-62 NSCLC was more than 100 µM throughout.
With `CCOC(=O)/C(C#N)=C\C=C(/Cl)c1ccc(Cl)cc1`, the GI50 in the assay with U251 CNS was 17.6 µM; in the assay with CCRF-CEM leukemia, 0.484 µM; in the assay on SNB-19 CNS it was 19.1 µM; in the assay on NCI-H460 lung, 31 µM; with SF-295 CNS, 19 µM; in the assay with UACC-62 melanoma it was 18.7 µM. Also, the GI50 with UACC-257 melanoma was 17.6 µM; in the assay with UO-31 renal, 18 µM; with OVCAR-3 ovarian it was 7.76 µM; with HOP-62 NSCLC, 17.5 µM. For the same molecule, the TGI in the assay on U251 CNS was 32.1 µM; in the assay with CCRF-CEM leukemia, more than 100 µM; with SNB-19 CNS it was 46.4 µM; with NCI-H460 lung, more than 77.5 µM; with SF-295 CNS, 38.1 µM; in the assay with UACC-62 melanoma, 38.9 µM. For the same molecule, the TGI was 32.6 µM in the assay on UACC-257 melanoma, 35.4 µM in the assay on UO-31 renal, 28.4 µM in the assay on OVCAR-3 ovarian and 35.2 µM with HOP-62 NSCLC.
`CCCCN(CCCC)C(=O)/C(CC(=O)c1cccc2ccccc12)=N\NC(=O)c1cc2ccccc2cc1O`: the TGI was 72.3 µM with U251 CNS; 25.3 µM with CCRF-CEM leukemia; more than 100 µM in the assay on SNB-19 CNS; 44.2 µM in the assay with NCI-H460 lung; 92.7 µM in the assay with SF-295 CNS; 23.3 µM in the assay on UACC-62 melanoma. The TGI in the assay on UACC-257 melanoma turned out to be 52.8 µM; in the assay with UO-31 renal, 37.3 µM; in the assay with OVCAR-3 ovarian it was 53.3 µM; in the assay on HOP-62 NSCLC, 39.9 µM.
Regarding `Cc1c(C(=O)O)oc2ccc([N+](=O)[O-])cc12`, the TGI in the assay with U251 CNS, with CCRF-CEM leukemia, with SNB-19 CNS, in the assay on NCI-H460 lung, in the assay on SF-295 CNS and in the assay on UACC-62 melanoma was more than 100 µM in each case. The TGI in the assay on UACC-257 melanoma, in the assay with UO-31 renal, with OVCAR-3 ovarian and in the assay with HOP-62 NSCLC was more than 100 µM each time.
Turning to `CC(=O)OCC1OC(N2C(=O)C(=O)c3ccccc32)C(OC(C)=O)C(OC(C)=O)C1OC(C)=O` (stereo not given), the TGI in the assay on U251 CNS, in the assay on CCRF-CEM leukemia, in the assay on SNB-19 CNS, in the assay with NCI-H460 lung, in the assay with SF-295 CNS and in the assay on UACC-62 melanoma was more than 100 µM throughout. Further, the TGI in the assay on UACC-257 melanoma, in the assay on UO-31 renal, with OVCAR-3 ovarian and with HOP-62 NSCLC was more than 100 µM throughout.
As to `O=C(N/N=C/c1ccccc1O)c1ccccc1`, the GI50 in the assay with U251 CNS is 1.94 µM; in the assay on CCRF-CEM leukemia, 0.35 µM; with SNB-19 CNS, 6.22 µM; with NCI-H460 lung, 1.18 µM; in the assay with SF-295 CNS, 1.1 µM; in the assay with UACC-62 melanoma, 1.87 µM. In addition, the GI50 is 3.47 µM in the assay on UACC-257 melanoma, 1.53 µM in the assay on UO-31 renal, 0.669 µM in the assay on OVCAR-3 ovarian and 1.61 µM with HOP-62 NSCLC. Also, the TGI was more than 100 µM in the assay with U251 CNS; 8.3 µM with CCRF-CEM leukemia; more than 100 µM in the assay with SNB-19 CNS; more than 100 µM with NCI-H460 lung; 52.1 µM in the assay with SF-295 CNS; 7.16 µM with UACC-62 melanoma. Further, the TGI in the assay with UACC-257 melanoma is 37.1 µM; with UO-31 renal, 11.7 µM; with OVCAR-3 ovarian, more than 100 µM; with HOP-62 NSCLC, 8.61 µM.
As for `C=C1C(=O)O[C@H]2[C@H]1CC/C(C=Nc1c(N)cc(C(F)(F)F)cc1Br)=C\CC[C@@]1(C)O[C@@H]21`, the GI50 with U251 CNS is 1.69 µM; in the assay with CCRF-CEM leukemia it was 0.33 µM; with SNB-19 CNS, 3.46 µM; in the assay with NCI-H460 lung, 1.78 µM; with SF-295 CNS it was 2.66 µM; in the assay on UACC-62 melanoma it was 1.41 µM. The GI50 in the assay on UACC-257 melanoma is 1.64 µM; with UO-31 renal, 1.26 µM; in the assay on OVCAR-3 ovarian, 1.29 µM; in the assay with HOP-62 NSCLC it was 2.17 µM. Besides, the TGI with U251 CNS is 3.17 µM; in the assay with CCRF-CEM leukemia it was 11.2 µM; with SNB-19 CNS, 13.2 µM; with NCI-H460 lung, 3.81 µM; in the assay on SF-295 CNS it was 7.96 µM; in the assay on UACC-62 melanoma it was 2.96 µM. Besides, the TGI stood at 3.61 µM in the assay on UACC-257 melanoma, 2.52 µM in the assay on UO-31 renal, 2.65 µM with OVCAR-3 ovarian and 4.82 µM in the assay with HOP-62 NSCLC.

For the origin of these results see PubChem BioAssay (NCI).
